The results in this text go back to ChEMBL document CHEMBL5380880, “Novel drug-like fluorenyl derivatives as selective butyrylcholinesterase and β-amyloid inhibitors for the treatment of Alzheimer's disease” (Bioorg Med Chem, 2023).

Active and inactive are the calls of the source. No cut-off for these calls is given here.

For orientation: logD means lipophilicity at a set pH, counting ionised and neutral species. In general, logP refers to a log measure of how a compound divides between an organic and an aqueous phase. Read a high logP as a more lipophilic compound. The term inhibition denotes the drop in the measured response relative to a control, in per cent. The term IC50 denotes the concentration that gives 50% inhibition. A high value points to weaker potency in that assay.

A short description of series [1]: Lipophilicity, logD of compound at pH 7.4. Format: physicochemical. To be noted: buffer.
Series [2] is described as follows: Lipophilicity, logP of compound. Format: physicochemical. To be noted: octanol/water.
Series [3] concerns the target Amyloid-beta precursor protein (Homo sapiens) (UniProt P05067). Description: Inhibition of amyloid beta (unknown origin) aggregation at 10 uM incubated for 5 mins by thioflavin fluorescent based analysis relative to control.
A further series addresses Cholinesterase (Equus caballus, UniProt P81908). Description: Inhibition of equine serum BuChE by Ellman's method. On the technique in general: Ellman's reagent forms a yellow product with free thiols.
Series [4] deals with Cholinesterase (Equus caballus) (UniProt P81908). Description: Inhibition of equine serum BuChE at 10 uM by Ellman's method relative to control.
For series [5], the target named is Acetylcholinesterase (Electrophorus electricus) (UniProt O42275). In words: Inhibition of Electric eel AChE relative to control. To be noted: concentration not given here.
Series [6] addresses Cholinesterase (Equus caballus) (UniProt P81908). Description: Inhibition of equine serum BuChE.

Chain of Cholinesterase (P81908 whole entry): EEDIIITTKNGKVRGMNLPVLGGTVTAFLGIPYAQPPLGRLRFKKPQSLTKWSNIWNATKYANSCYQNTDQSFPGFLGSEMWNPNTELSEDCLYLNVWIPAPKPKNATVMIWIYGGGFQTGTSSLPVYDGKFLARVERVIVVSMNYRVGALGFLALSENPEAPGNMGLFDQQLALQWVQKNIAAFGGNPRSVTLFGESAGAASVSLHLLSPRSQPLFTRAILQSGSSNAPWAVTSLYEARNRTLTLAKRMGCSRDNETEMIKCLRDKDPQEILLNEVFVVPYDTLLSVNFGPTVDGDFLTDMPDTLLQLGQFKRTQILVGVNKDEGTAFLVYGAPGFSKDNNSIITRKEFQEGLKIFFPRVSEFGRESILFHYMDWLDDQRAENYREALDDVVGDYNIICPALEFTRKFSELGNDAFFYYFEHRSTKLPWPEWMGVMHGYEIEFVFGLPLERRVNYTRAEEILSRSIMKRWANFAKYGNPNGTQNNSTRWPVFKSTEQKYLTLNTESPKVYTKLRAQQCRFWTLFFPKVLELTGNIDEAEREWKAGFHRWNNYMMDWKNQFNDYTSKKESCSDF
Chain of Amyloid-beta precursor protein (Homo sapiens) (P05067 whole entry): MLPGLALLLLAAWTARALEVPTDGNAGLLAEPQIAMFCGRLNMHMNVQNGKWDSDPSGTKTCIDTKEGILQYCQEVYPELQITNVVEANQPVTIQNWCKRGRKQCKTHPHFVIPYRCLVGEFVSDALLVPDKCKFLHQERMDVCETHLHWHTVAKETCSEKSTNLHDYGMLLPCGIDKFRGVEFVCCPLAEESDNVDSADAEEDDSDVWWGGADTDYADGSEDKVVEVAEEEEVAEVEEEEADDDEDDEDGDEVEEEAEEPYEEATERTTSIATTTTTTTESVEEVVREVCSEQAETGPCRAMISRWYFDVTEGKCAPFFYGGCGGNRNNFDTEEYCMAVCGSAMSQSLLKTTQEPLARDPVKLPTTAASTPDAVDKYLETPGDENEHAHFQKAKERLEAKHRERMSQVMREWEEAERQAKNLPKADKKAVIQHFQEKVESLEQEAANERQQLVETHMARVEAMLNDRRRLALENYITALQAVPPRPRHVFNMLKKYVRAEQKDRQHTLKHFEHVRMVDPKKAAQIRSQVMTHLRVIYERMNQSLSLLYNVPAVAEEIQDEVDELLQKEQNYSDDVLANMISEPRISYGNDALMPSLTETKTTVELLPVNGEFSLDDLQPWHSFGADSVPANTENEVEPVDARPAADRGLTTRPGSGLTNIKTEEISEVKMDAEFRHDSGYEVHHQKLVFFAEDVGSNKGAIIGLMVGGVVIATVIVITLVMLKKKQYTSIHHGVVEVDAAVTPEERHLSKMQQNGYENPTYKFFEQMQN
Chain of Cholinesterase (Equus caballus) (P81908 whole entry): as the sequence (P81908 whole entry) above
Chain of Acetylcholinesterase (Electrophorus electricus) (O42275 24-633 limits assumed): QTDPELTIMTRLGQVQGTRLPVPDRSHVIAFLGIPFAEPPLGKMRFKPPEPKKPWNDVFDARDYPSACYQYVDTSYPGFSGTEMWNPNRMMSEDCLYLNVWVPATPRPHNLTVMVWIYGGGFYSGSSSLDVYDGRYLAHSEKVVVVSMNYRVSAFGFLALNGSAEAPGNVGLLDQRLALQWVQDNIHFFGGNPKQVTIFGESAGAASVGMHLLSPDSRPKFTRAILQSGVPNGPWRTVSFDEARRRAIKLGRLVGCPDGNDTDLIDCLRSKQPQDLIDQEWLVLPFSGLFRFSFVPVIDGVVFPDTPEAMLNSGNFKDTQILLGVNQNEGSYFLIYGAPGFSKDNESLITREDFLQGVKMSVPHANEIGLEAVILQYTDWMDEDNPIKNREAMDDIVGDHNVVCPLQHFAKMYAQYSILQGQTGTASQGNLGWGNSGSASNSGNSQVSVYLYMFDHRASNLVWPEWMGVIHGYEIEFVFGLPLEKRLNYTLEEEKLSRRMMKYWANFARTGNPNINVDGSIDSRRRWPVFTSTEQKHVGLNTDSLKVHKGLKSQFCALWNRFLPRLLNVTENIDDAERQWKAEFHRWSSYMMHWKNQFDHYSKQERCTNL

For `CC(C)(C)c1cccc(CNCC(O)CNCCC(c2ccccc2)c2ccccc2)c1` (centres undefined), the logD in series [1] was found to be 3.7. This molecule also gave a logP in series [2] of 5.96. Also, the inhibition in series [3] was 4.6%.

Turning to `O=C(CC(c1ccccc1)c1ccccc1)NCC(O)CNCC1CCCCC1` (centres undefined), the logD in series [1] came to 1.43. Moreover, at Cholinesterase, half-maximal inhibition (IC50) was put at 78 nM. Moreover, the inhibition in series [3] turned out to be 4.6%.

Consider `O=C(NC[C@@H](O)CNCC1CCCCCC1)C1c2ccccc2-c2ccccc21`, for which, at Cholinesterase, the IC50 was determined as 31 nM. Moreover, in series [3], the inhibition came out at 4.6%.

With `O=C(NC[C@H](O)CNCC1CCCCCC1)C1c2ccccc2-c2ccccc21`, the IC50 on Cholinesterase is 288 nM. The same molecule displayed an inhibition in series [3] of 4.6%.

For the molecule `Nc1c2c(nc3ccccc13)CCCC2`, the inhibition in series [3] amounted to 4.6%.

Regarding `CC(C)(C)CNCC(O)CNC(=O)CC1c2ccccc2-c2ccccc21` (racemic), the logD in series [1] was 0.73. Besides, the IC50 against Cholinesterase stood at 672 nM. Further, in series [3], the inhibition was 4.6%.

In series [1], `O=C(NCC(O)CNCC1CCCCC1)C1c2ccccc2-c2ccccc21` (racemic) registered a logD of 0.91. Moreover, it took 231 nM to reach half-maximal inhibition on Cholinesterase (IC50). For the same molecule, in series [3], the inhibition is 4.6%.

In series [1], `O=C(NCC(O)CNCCC1CCCCC1)C1c2ccccc2-c2ccccc21` (racemic) displayed a logD of 1.41. Besides, the IC50 against Cholinesterase stood at 475 nM. In series [3], the inhibition was found to be 60.7%.

Consider `O=C(CC1c2ccccc2-c2ccccc21)NCC(O)CNCCC1CCCCC1` (racemic), for which the logD in series [1] stood at 1.6. It took 422 nM to reach half-maximal inhibition on Cholinesterase (IC50). The molecule also displayed an inhibition in series [3] of 4.6%.

In series [1], `O=C(NCC(O)CNCC1CCCCCC1)C1c2ccccc2-c2ccccc21` (racemic) returned a log distribution coefficient (logD) of 1.36. Also, the IC50 at Cholinesterase stood at 38 nM. Also, in series [3], the inhibition was 4.6%.

In series [1], `O=C(CC1c2ccccc2-c2ccccc21)NCC(O)CNCC1CCCCCC1` (racemic) showed a logD of 1.55. Moreover, the 50% inhibitory concentration (IC50) at Cholinesterase was 1090 nM. In series [3], this molecule gave an inhibition of 4.6%.

Consider `O=C(CC1c2ccccc2-c2ccccc21)NCC(O)CNCC1CCCCC1` (racemic), for which, in series [1], the logD came to 1.1. On Cholinesterase, it took 1690 nM to reach half-maximal inhibition (IC50). The inhibition in series [3] was 4.6%.

Molecule `O=C(CC1c2ccccc2-c2ccccc21)NCC(O)CNCC1CC1` (racemic) came in with a logD in series [1] of -0.1. Further, the results for the inhibition in series [4], in series [5] and in series [3] were 44.5%, over 20% and 4.6%, respectively. Also, the inhibition entry in series [6] is “inactive”.

The molecule `O=C(NCC(O)CNCc1ccccc1)C1c2ccccc2-c2ccccc21` (racemic) came in with a logD in series [1] of 1.78. This molecule also had an IC50 on Cholinesterase of 627 nM. The molecule further came in with an inhibition in series [3] of 4.6%.

`O=C(CC1c2ccccc2-c2ccccc21)NCC(O)CNC1CCCCC1` (racemic) had a logD in series [1] of 0.79. At Cholinesterase, the IC50 was found to be 1490 nM. In series [3], the inhibition turned out to be 4.6%.

In series [1], `CC(C)(C)CNCC(O)CNC(=O)C1c2ccccc2-c2ccccc21` (racemic) came in with a logD of 0.54. This molecule returned a half-inhibitory concentration (IC50) against Cholinesterase of 385 nM. Further, the inhibition in series [3] was determined as 4.6%.

In turn, `O=C(CC1c2ccccc2-c2ccccc21)NCC(O)CNCC1CCCC1` (racemic) came in with a logD in series [1] of 0.66. Besides, at Cholinesterase, it took 1710 nM to reach half-maximal inhibition (IC50). In series [3], this molecule displayed an inhibition of 4.6%.

Take `O=C(CC1c2ccccc2-c2ccccc21)NCC(O)CNCc1ccccc1` (racemic): the logD in series [1] stood at 1.88. On Cholinesterase, this molecule showed a concentration for half-maximal inhibition (IC50) of 4330 nM. For the same molecule, the inhibition in series [3] stood at 4.6%.

In turn, `O=C(NCC(O)CNCC1CC1)C1c2ccccc2-c2ccccc21` (racemic) displayed a logD in series [1] of -0.29. The midpoint of inhibition against Cholinesterase, the IC50, lay at 435 nM. The same molecule yielded an inhibition in series [3] of 4.6%.

`O=C(NCC(O)CNC1CCCCC1)C1c2ccccc2-c2ccccc21` (racemic) showed a logD in series [1] of 0.6. The same molecule registered an IC50 at Cholinesterase of 336 nM. Moreover, the inhibition in series [3] stood at 4.6%.

In turn, `O=C(NCC(O)CNCC1CCCC1)C1c2ccccc2-c2ccccc21` (racemic) displayed a logD in series [1] of 0.47. At Cholinesterase, inhibition was half-maximal at 379 nM (IC50). Further, in series [3], the inhibition was 4.6%.

`O=C(NCC(O)CNCC(F)(F)F)C1c2ccccc2-c2ccccc21` (racemic): in series [1], the logD turned out to be 2.33. For the same molecule, the midpoint of inhibition at Cholinesterase, the IC50, lay at 12900 nM. Further, the inhibition in series [3] is 67.6%.
